What was measured:
TRESK = molecular target: T1, TRESK (Mus musculus, UniProt Q6VV64); assay: whole-cell patch clamp, HEK293, voltage ramp, current at +[…] mV; format: cell-based
T1 sequence (Q6VV64 1-394): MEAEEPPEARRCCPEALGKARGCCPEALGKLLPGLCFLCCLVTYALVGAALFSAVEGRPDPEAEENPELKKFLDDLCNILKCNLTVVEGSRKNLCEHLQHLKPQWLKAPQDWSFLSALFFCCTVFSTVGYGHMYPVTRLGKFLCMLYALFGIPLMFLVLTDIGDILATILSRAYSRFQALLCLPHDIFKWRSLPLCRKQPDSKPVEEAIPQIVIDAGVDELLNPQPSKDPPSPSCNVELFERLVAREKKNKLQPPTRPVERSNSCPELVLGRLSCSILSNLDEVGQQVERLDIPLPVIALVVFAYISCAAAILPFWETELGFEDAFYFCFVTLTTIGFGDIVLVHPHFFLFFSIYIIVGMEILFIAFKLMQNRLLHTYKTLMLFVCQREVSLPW

TREK-2 = molecular target: T2, TREK-2 (Rattus norvegicus, UniProt Q9JIS4); assay: as above; format: cell-based
T2 sequence (Q9JIS4 1-538): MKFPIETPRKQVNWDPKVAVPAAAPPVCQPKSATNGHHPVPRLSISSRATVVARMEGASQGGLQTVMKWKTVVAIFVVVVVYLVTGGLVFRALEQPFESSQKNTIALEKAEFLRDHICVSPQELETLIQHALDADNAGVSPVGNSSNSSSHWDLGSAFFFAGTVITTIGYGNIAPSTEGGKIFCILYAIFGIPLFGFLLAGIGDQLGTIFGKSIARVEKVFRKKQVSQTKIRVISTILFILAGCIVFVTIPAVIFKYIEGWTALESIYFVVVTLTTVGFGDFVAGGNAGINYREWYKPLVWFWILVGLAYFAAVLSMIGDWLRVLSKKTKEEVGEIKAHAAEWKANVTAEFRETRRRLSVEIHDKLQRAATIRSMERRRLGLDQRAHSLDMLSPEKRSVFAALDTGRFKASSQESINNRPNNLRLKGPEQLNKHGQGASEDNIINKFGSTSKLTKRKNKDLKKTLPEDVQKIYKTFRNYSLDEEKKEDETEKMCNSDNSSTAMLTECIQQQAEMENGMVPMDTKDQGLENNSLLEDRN

SMILES	IC50 (TRESK)	IC50 (TREK-2)
CC(=O)Nc1ccc(O)cc1 [acetaminophen]	220 ± 26 µM	
CN(C)CCC=C1c2ccccc2CCc2ccccc21 [amitriptyline]	26 ± 5 µM	16 ± 4 µM
CC(NC(C)(C)C)C(=O)c1cccc(Cl)c1 (stereo not shown) [bupropion]	160 ± 17 µM	
CN(C)CCCC1(c2ccc(F)cc2)OCc2cc(C#N)ccc21 (stereo not shown) [citalopram]	168 ± 11 µM	110 ± 9 µM
CN(C)CCC[C@@]1(c2ccc(F)cc2)OCc2cc(C#N)ccc21 [escitalopram]	49 ± 7 µM	102 ± 9 µM
CC(C)Cc1ccc(C(C)C(=O)O)cc1 (stereo not shown) [ibuprofen]	889 ± 10 µM	
COc1ccc2cc(CCC(C)=O)ccc2c1 [nabumetone]	557 ± 35 µM	

— paper PMC4930906 (The Korean Journal of Physiology & Pharmacology : Official …, 2016)
